Test [1] has as its target KRas G12C (Homo sapiens, UniProt P01116, C118S/C51S/C80L/G12C). Briefly: KRas G12C Modification Assay (LCMS detection of covalent adduct). The format is binding. The note with it: normalized percent of control; tested at 5 μM concentration for 3 hours. The method in brief:
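Covalent modification was read by reverse-phase LC/MS of intact protein after compound exposure, each reaction stopped at its time point with 25 mM acetic acid. Unmodified-protein signal, taken as percent of total, was normalised to untreated protein and reported as POC.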

The test system of test [2] is NCI-H358 cells (express KRas G12C), Phospho-ERK. Nature of the test: Cellular inhibition of KRas G12C: Phospho-ERK in NCI-H358 cells. Particulars: Homo sapiens, pERK(Thr202/Tyr204) normalized with GAPDH, NCI-H358 cells, 3 hours, read-out: IC50. The format is cell-based. Put shortly:
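IC50 derived by 4-parameter fit of GAPDH-normalized pERK(Thr202/Tyr204) signal, as percent of DMSO control. Signal came from in-cell immunodetection with infrared secondaries after 3 h compound exposure of KRas G12C NCI-H358 cells at 0.5% DMSO.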

Broadly, the IC50 is the concentration that gives 50% inhibition.

Where two headings read alike, the source gives them in different places.

For the molecule `C=CC(=O)N1CCN(c2nc(OCCNC(C)=O)nc3c2CCN(c2cc(O)cc4ccccc24)C3)CC1` [Example 59, N-(2-((4-(4-acryloylpiperazin-1-yl)-7-(3-hydroxynaphthalen-1-yl)-5,6,7,8-tetrahydropyrido[3,4-d]pyrimidin-2-yl)oxy)ethyl)acetamide], the POC entry in test [1] is on record as “C (“C”>50% POC)”. In test [2] (NCI-H358, 3 h), the concentration for half-maximal inhibition (IC50) is over 1000 nM.
In the case of `C=CC(=O)N1CCN(c2nc(O[C@H](CC)CN(C)C)nc3c2CCN(c2cc(O)cc4ccccc24)C3)CC1` [Example 60, (R)-1-(4-(2-((1-(dimethylamino)butan-2-yl)oxy)-7-(3-hydroxynaphthalen-1-yl)-5,6,7,8-tetrahydropyrido[3,4-d]pyrimidin-4-yl)piperazin-1-yl)prop-2-en-1-one], the POC result in test [1] is listed as “C (“C”>50% POC)”. Also, the IC50 in test [2] (NCI-H358, 3 h) was over 1000 nM.
The like results for `C=CC(=O)N1CCN(c2nc(O[C@H](C)CN3CC[C@@H](OC)C3)nc3c2CCN(c2cc(O)cc4ccccc24)C3)CC1` [Example 63, 1-(4-(7-(3-hydroxynaphthalen-1-yl)-2-(((R)-1-((R)-3-methoxypyrrolidin-1-yl)propan-2-yl)oxy)-5,6,7,8-tetrahydropyrido[3,4-d]pyrimidin-4-yl)piperazin-1-yl)prop-2-en-1-one] were, in that order, “C (“C”>50% POC)” and over 1000 nM.
In the case of `C=CC(=O)N1CCN(c2nc(O[C@H](C)CN3CC[C@H](OC)C3)nc3c2CCN(c2cc(O)cc4ccccc24)C3)CC1` [Example 64, 1-(4-(7-(3-hydroxynaphthalen-1-yl)-2-(((R)-1-((S)-3-methoxypyrrolidin-1-yl)propan-2-yl)oxy)-5,6,7,8-tetrahydropyrido[3,4-d]pyrimidin-4-yl)piperazin-1-yl)prop-2-en-1-one], the POC result in test [1] is reported as “C (“C”>50% POC)”. The half-maximal inhibitory concentration (IC50) in test [2] (NCI-H358, 3 h) was 0.1 to 1000 nM.
For `C=CC(=O)N1CCN(c2nc(O[C@H](C)CN3CC[C@H](O)C3)nc3c2CCN(c2cc(O)cc4ccccc24)C3)CC1` [Example 65, 1-(4-(7-(3-hydroxynaphthalen-1-yl)-2-(((R)-1-((S)-3-hydroxypyrrolidin-1-yl)propan-2-yl)oxy)-5,6,7,8-tetrahydropyrido[3,4-d]pyrimidin-4-yl)piperazin-1-yl)prop-2-en-1-one] the same measures were “C (“C”>50% POC)” and over 1000 nM.
Regarding `C=CC(=O)N1CCN(c2nc(O[C@H]3CCCN(C)C3)nc3c2CCN(c2cc(O)cc4ccccc24)C3)CC1` [Example 66, (S)-1-(4-(7-(3-hydroxynaphthalen-1-yl)-2-((1-methylpiperidin-3-yl)oxy)-5,6,7,8-tetrahydropyrido[3,4-d]pyrimidin-4-yl)piperazin-1-yl)prop-2-en-1-one], in test [1], the POC entry is listed as “C (“C”>50% POC)”. In test [2] (NCI-H358, 3 h), the IC50 is over 1000 nM.
For `C=CC(=O)N1CCN(c2nc(O[C@@H]3CCCN(C)C3)nc3c2CCN(c2cc(O)cc4ccccc24)C3)CC1` [Example 67, (R)-1-(4-(7-(3-hydroxynaphthalen-1-yl)-2-((1-methylpiperidin-3-yl)oxy)-5,6,7,8-tetrahydropyrido[3,4-d]pyrimidin-4-yl)piperazin-1-yl)prop-2-en-1-one] the same measures were “C (“C”>50% POC)” and 0.1 to 1000 nM.
For `C=CC(=O)N1CCN(c2nc(O[C@H](C)CN(C)C)nc3c2CCN(c2cccc4ccccc24)C3)CC1` [Example 68, (R)-1-(4-(2-((1-(dimethylamino)propan-2-yl)oxy)-7-(naphthalen-1-yl)-5,6,7,8-tetrahydropyrido[3,4-d]pyrimidin-4-yl)piperazin-1-yl)prop-2-en-1-one] the same measures were “A (“A”≤25% POC)” and over 1000 nM.
`C=CC(=O)N1CCN(c2ncnc3c2CCN(c2cncc4ccccc24)C3)CC1` [Example 69, 1-(4-(7-(isoquinolin-4-yl)-5,6,7,8-tetrahydropyrido[3,4-d]pyrimidin-4-yl)piperazin-1-yl)prop-2-en-1-one]: the POC result in test [1] is “A (“A”≤25% POC)”. In addition, the IC50 in test [2] was over 1000 nM.
Turning to `C=CC(=O)N1CCN(c2nc(OC(C)CNC)nc3c2CCN(c2cc(O)cc4ccccc24)C3)CC1` (stereo not shown) [Example 70, 1-(4-(7-(3-hydroxynaphthalen-1-yl)-2-((1-(methylamino)propan-2-yl)oxy)-5,6,7,8-tetrahydropyrido[3,4-d]pyrimidin-4-yl)piperazin-1-yl)prop-2-en-1-one], in test [1], the POC entry is reported as “C (“C”>50% POC)”. Also, the IC50 in test [2] (NCI-H358, 3 h) was over 1000 nM.
For the molecule `C=CC(=O)N1CCN(c2ncnc3c2CCN(C(CO)c2ccccc2)C3)CC1` (stereo not shown) [Example 71, 1-(4-(7-(2-hydroxy-1-phenylethyl)-5,6,7,8-tetrahydropyrido[3,4-d]pyrimidin-4-yl)piperazin-1-yl)prop-2-en-1-one], in test [1], the POC entry is reported as “A (“A”≤25% POC)”. Also, in test [2], the IC50 is over 1000 nM.
As for `C=CC(=O)N1CCN(c2nc(OCC3CCCN(C)C3)nc3c2CCN(c2cc(O)cc4ccccc24)C3)CC1` (stereo not shown) [Example 72, 1-(4-(7-(3-hydroxynaphthalen-1-yl)-2-((1-methylpiperidin-3-yl)methoxy)-5,6,7,8-tetrahydropyrido[3,4-d]pyrimidin-4-yl)piperazin-1-yl)prop-2-en-1-one], the POC entry in test [1] was “C (“C”>50% POC)”. Moreover, the half-maximal inhibitory concentration (IC50) in test [2] (NCI-H358, 3 h) lay in the range of 0.1 to 1000 nM.
For `C=CC(=O)N1CCN(c2nc(OCC(C)N(C)C)nc3c2CCN(c2cc(O)cc4ccccc24)C3)CC1` (stereo not shown) [Example 73, 1-(4-(2-(2-(dimethylamino)propoxy)-7-(3-hydroxynaphthalen-1-yl)-5,6,7,8-tetrahydropyrido[3,4-d]pyrimidin-4-yl)piperazin-1-yl)prop-2-en-1-one] the same measures were “C (“C”>50% POC)” and over 1000 nM.
The like results for `C=CC(=O)N1CCN(c2nc(OCCCN3CCOCC3)nc3c2CCN(c2cc(O)cc4ccccc24)C3)CC1` [Example 74, 1-(4-(7-(3-hydroxynaphthalen-1-yl)-2-(3-morpholinopropoxy)-5,6,7,8-tetrahydropyrido[3,4-d]pyrimidin-4-yl)piperazin-1-yl)prop-2-en-1-one] were, in that order, “C (“C”>50% POC)” and 0.1 to 1000 nM.
For `C=CC(=O)N1CCN(c2nc(O[C@H](C)CN3CCCCC3)nc3c2CCN(c2cc(O)cc4ccccc24)C3)CC1` [Example 75, (R)-1-(4-(7-(3-hydroxynaphthalen-1-yl)-2-((1-(piperidin-1-yl)propan-2-yl)oxy)-5,6,7,8-tetrahydropyrido[3,4-d]pyrimidin-4-yl)piperazin-1-yl)prop-2-en-1-one] the same measures were “C (“C”>50% POC)” and 0.1 to 1000 nM.
Regarding `C=CC(=O)N1CCN(c2nc(O[C@H](C)CN(C)C)nc3c2CCN(c2cc(O)cc(Cl)c2C(C)C)C3)CC1` [Example 76, (R)-1-(4-(7-(3-chloro-5-hydroxy-2-isopropylphenyl)-2-((1-(dimethylamino)propan-2-yl)oxy)-5,6,7,8-tetrahydropyrido[3,4-d]pyrimidin-4-yl)piperazin-1-yl)prop-2-en-1-one], the POC entry in test [1] is given as “C (“C”>50% POC)”. Also, the IC50 in test [2] is over 1000 nM.
For the molecule `C=CC(=O)N1CCN(c2nc(OCCN3C[C@@H]4CC[C@H]3C4)nc3c2CCN(c2cc(O)cc4ccccc24)C3)CC1` [Example 77, 1-(4-(2-(2-((1 S,4R)-2-azabicyclo[2.2.1]heptan-2-yl)ethoxy)-7-(3-hydroxynaphthalen-1-yl)-5,6,7,8-tetrahydropyrido[3,4-d]pyrimidin-4-yl)piperazin-1-yl)prop-2-en-1-one], in test [1], the POC entry is “C (“C”>50% POC)”. For the same molecule, in test [2] (NCI-H358, 3 h), the IC50 lay in the range of 0.1 to 1000 nM.

For the origin of these results see patent US10125134B2 (Mirati Therapeutics, Inc., priority 2016, dated 2018).
